Laboratory results reported in US20070072209A1, “Methods of treatment and diagnosis of Kaposi's sarcoma (KS) and KS related diseases” (priority 2005, published 2007).

System: DMVEC
Test: Uptake, distribution and persistence of FITC-labeled PMO antisense
Assay type: cell-based, human
Settings: 3 hours after loading, FITC-labeled PMO with EPEI
Source text: Introduction of antisense PMO into KSHV-infected DMVEC. Antisense PMO molecules, for delivery purposes, are typically converted to a paired duplex together with a partially complementary cDNA oligonucleotide in the weakly basic delivery reagent ethoxylated polyethylenimine (EPEI) (Summerton, supra). The anionic complex binds to the cell surface, is taken up by endocytosis and eventually released into the cytosol. A protocol for optimum uptake of antisense PMO in immortalized DMVEC was developed using a modification of the EPEI method. Briefly, uninfected, immortalized DMVECs were incubated for 3 hours at 37° C. with 0.6 nmol/well FITC-PMO complexed with EPEI according to the manufacturer's instructions (GeneTools, LLC, One Summerton Way, Philomath, Oreg. 97370) (e.g., 1.25 nMol oligomer with 2.5 μl EPEI reagent per 35 mm dish, allowing for sufficient antisense uptake without non-specific EPEI-induced toxicity). The PMOs were labeled with FITC to allow for monitoring of loading efficiency by fluorescence microscopy.
Cellular distribution of introduced FITC-labeled PMO antisense molecules. […]
Therefore, the introduced PMO antisense oligomers were determined to be stable over substantial time periods in DMVEC. […] Moreover, the PMO oligomers were readily taken up by DMVEC and distributed within the cytosol.

In the case of “KIT: FITC-labeled PMO targeting the start codon of c-Kit, CGCCTCTCATCGCGGTAGCTGCG (SEQ ID NO:21) (all phosphorodiamidate morpholino (PMO); FITC label attached, position not given here)”, the “cells with FITC-PMO concentrated in intracellular vesicles (endosomes)” value is reported as “about 70%”.
